We go through six compounds from patent US20260132128A1, “COMPOUND FOR RECOVERING P53 MUTATION FUNCTION AND USE THEREOF” (SHENZHEN ZHONGGE BIOLOGICAL TECHNOLOGY CO., LTD., priority 2022, published 2026).

For test [1], the system named is BxPC-3 cells. Briefly: BxPC-3 cell proliferation test (CTG). The format is cell-based. The following applies: Homo sapiens, 144 h, 6 days. How it is done: To detect the inhibitory effects of the aforementioned compounds on the proliferation ability of BxPC-3 cells, 125 BxPC-3 cells (ATCC®CRL-1687) were seeded into a 384-well plate (Corning 3765), 35 μL per well, and placed in a constant temperature incubator at 37° C. and 5% CO2 overnight. Then, 40 nL of the compound was added to the 384-well plate using an Echo 655 Liquid Handler, with a maximum final concentration of 10 μM, 1:3 serial dilution, and in a total of 10 doses. Incubation was performed at 37° C., 5% CO2 for 6 days. The plate was taken out from the incubator and equilibrated at room temperature for 10 minutes. 20 μL of CTG (Promage G7572) was added to each well of the plate according to the platemap. The plate was centrifuged at 1000 rpm for 1 minute. The lysis of cells was induced by mixing on a shaker for 2 minutes. The plate was centrifuged at 1000 rpm for 1 minute. Incubation was performed at room temperature for 10 minutes to stabilize luminescence signals. Luminescence values were recorded by Envision (PerkinElmer 2105-0020). GraphPad 9.0 was used to fit the inhibition rate and compound concentration into a nonlinear regression curve (dose response-variable slope) to calculate GI50, inhibition rate={1−(A−B)/(C−B)}*100%, A=signal value of compound; B=average signal of blank control; C=average signal of negative control (wherein the negative control was 0.1% DMSO).

In test [2] the target is T1, CYP 3A4 (Homo sapiens, UniProt P08684).
T1 construct: purchased BioIVT X008067
Briefly: CYP 3A4 time-dependent inhibition test. The format is in vitro ADME. Particulars: midazolam substrate. How it is done:
CYP 3A4 and the test compound or mifepristone of various concentrations were added to a 96-deep well plate for pre-incubation. The plate was placed in a water bath and preheated at 37° C. for 5 min. For the 0 min pre-incubation samples, midazolam substrate was added to the incubation plate, then 10 mM NADPH solution was added, and the reaction was carried out in a 37° C. water bath for 5 min; for the 30 min pre-incubation samples with NADPH, 10 mM NADPH solution was added to the incubation plate, pre-incubated in a 37° C. water bath for 30 min, and then midazolam substrate was added and reacted in a 37° C. water bath for 5 min; for the 30 min pre-incubation samples without NADPH, the incubation plate was pre-incubated in a 37° C. water bath for 30 min, then midazolam substrate was added, 10 mM NADPH solution was added, and the reaction was carried out in a 37° C. water bath for 5 min. After the reaction was completed, the quenching solution (500 nM tolbutamide (Bide Pharmaceuticals, Cat. No. BD154332) and 10 nM terfenadine (Sigma, Cat. No. T96532)) were added to quench the reaction, and the plate was centrifuged at 3,220 g for 40 min at 4° C. The supernatant was pipetted into a new plate, the supernatant was diluted with pure water and mixed well, and the sample was analyzed using UPLC-MS/MS.

Test [3] concerns NUGC-3 cells. Briefly: NUGC-3 cell proliferation assay (CTG). The format is cell-based, human. Particulars: for GI50: 6 days, CTG; for Compound GI50 (nM)/Reference compound GI50 (nM): multiple ratio of GI50 of the compound to the reference compound. An outline of the steps: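 GI50 derived by variable-slope regression of percent inhibition (normalized to blank and 0.1% DMSO controls) from CTG luminescence. Compound was given as 10 threefold dilutions, highest final 10 μM, to overnight-seeded NUGC-3 cells (250/well) for 6 days, 37° C, 5% CO2.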

The target in test [4] is T2, p53 Y220C (Homo sapiens, UniProt P04637, Y220C).
T2 construct: a truncated mutant containing only amino acids 94-312 of p53; made in house; host or cells: E. coli
Briefly: DNA binding test (HTRF): binding of P53Y220C protein to DNA. The format is biochemical. Particulars: multiple ratio of EC50 of the compound to the reference compound, DNA binding test.

[5] abbreviates: 0 min pre-incubation, read-out: IC50 (μM) 0 min.
The mark [6] stands for this setting: 30 min pre-incubation with NADPH, read-out: IC50 (μM) 30 min, with NADPH.
[7] abbreviates: 30 min pre-incubation without NADPH, read-out: IC50 (μM) 30 min, without NADPH.

Where two headings read alike, the source gives them in different places. Marks after values point to notes of the source that are not given here.

By GI50 is commonly meant the concentration giving 50% growth inhibition. Read a low GI50 as greater sensitivity of the cells. The term IC50 denotes the midpoint of a concentration-inhibition curve.

T1 sequence (P08684 whole entry): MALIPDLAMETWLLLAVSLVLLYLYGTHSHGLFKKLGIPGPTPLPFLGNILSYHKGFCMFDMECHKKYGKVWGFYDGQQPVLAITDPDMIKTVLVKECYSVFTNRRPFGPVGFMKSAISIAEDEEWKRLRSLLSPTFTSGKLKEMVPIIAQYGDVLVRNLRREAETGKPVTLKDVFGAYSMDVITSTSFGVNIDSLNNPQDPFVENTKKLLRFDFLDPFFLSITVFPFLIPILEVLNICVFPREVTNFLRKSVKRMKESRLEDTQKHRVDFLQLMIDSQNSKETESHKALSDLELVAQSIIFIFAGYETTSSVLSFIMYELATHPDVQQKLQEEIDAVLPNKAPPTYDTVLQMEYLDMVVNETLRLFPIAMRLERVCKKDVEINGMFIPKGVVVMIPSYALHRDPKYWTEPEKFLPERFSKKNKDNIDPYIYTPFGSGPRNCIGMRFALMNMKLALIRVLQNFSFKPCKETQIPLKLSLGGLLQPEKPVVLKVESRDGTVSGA

As to `CNC(=O)c1ccc(NCC#Cc2nc3c(NC4CCC(N5CC6(COC6)C5)CC4F)cccn3c2CC(F)(F)F)c(OC)c1` (single isomer, unassigned) [Compound 35-6i], the GI50 in test [1] and in test [3] was under 1 µM in each case. Also, the IC50 in test [2] (setting [5]) was found to be 7.48 µM; in test [2] (setting [6]), 3.01 µM; in test [2] (setting [7]) it was 7.46 µM. The “Compound GI50 (nM)/Reference compound GI50 (nM)” value (from here on “Compound GI50”) in test [3] is reported as “A (A: GI50 of the compound ≤ GI50 of the reference compound)”. Also, the “Compound EC50 (nM)/Reference compound EC50 (nM)” value (“Compound EC50” for short) in test [4] was “B (B: EC50 of the reference compound<EC50 of the compound≤3.0*EC50 of the reference compound)”.
As for `[2H]C([2H])([2H])NC(=O)c1ccc(NCC#Cc2cc3c(NC4CCC(N5CC6(COC6)C5)CC4F)cccn3c2CC(F)(F)F)c(OC([2H])([2H])[2H])c1` (single isomer, unassigned) [Compound 74d], the IC50 was 4.55 µM in test [2] (setting [5]), 1.56 µM in test [2] (setting [6]) and 5.91 µM in test [2] (setting [7]). In addition, the 50% growth inhibitory concentration (GI50) in test [3] (Homo sapiens, NUGC-3, 144 h) was under 1 µM. For the same compound, the “Compound GI50” value in test [3] is “A (A: GI50 of the compound ≤ GI50 of the reference compound)”. Besides, in test [4], the “Compound EC50” value was “A (A: EC50 of the compound≤EC50 of the reference compound)”.
Turning to `CNC(=O)c1ccc(NCC#Cc2nc3c(N[C@@H]4CCN(C)C[C@@H]4F)cccn3c2CC(F)(F)F)c(OC)c1` [Compound 5], the GI50 in test [1] is under 1 µM; in test [3] (Homo sapiens, NUGC-3, 144 h), 1 to 5 µM. For the same compound, the IC50 in test [2] (setting [5]) was 8.05 µM; in test [2] (setting [6]) it was 1.89 µM; in test [2] (setting [7]), 8.36 µM. Further, the “Compound GI50” value in test [3] is on record as “B (B: GI50 of the reference compound < GI50 of the compound ≤ 3.0 * GI50 of the reference compound)”. Besides, the “Compound EC50” value in test [4] was “B (B: EC50 of the reference compound<EC50 of the compound≤3.0*EC50 of the reference compound)”.
Compound `COc1cc(C(=O)NC2CC2)ccc1NCC#Cc1nc2c(NC3CC[C@@H](N4CC5(COC5)C4)C[C@@H]3F)cccn2c1CC(F)(F)F` (stereo partly shown) [Compound 54] had a GI50 in test [3] (Homo sapiens, NUGC-3, 144 h) of under 1 µM. Besides, the “Compound GI50” value in test [3] is “C (C: GI50 of the compound ≥ 3 * GI50 of the reference compound)”. In addition, the “Compound EC50” value in test [4] is on record as “B (B: EC50 of the reference compound<EC50 of the compound≤3.0*EC50 of the reference compound)”.
On to `CNC(=O)c1ccc(NCC#Cc2nc3c(NC4CC[C@@H](N5CC6(COC6)C5)C[C@@H]4F)cccn3c2CC(F)(F)F)c(OCF)c1` (stereo partly shown) [Compound 58], for which the GI50 was under 1 µM in test [1] and under 1 µM in test [3] (Homo sapiens, NUGC-3, 144 h). The “Compound GI50” value in test [3] is given as “B (B: GI50 of the reference compound < GI50 of the compound ≤ 3.0 * GI50 of the reference compound)”. In addition, the “Compound EC50” value in test [4] is given as “B (B: EC50 of the reference compound<EC50 of the compound≤3.0*EC50 of the reference compound)”.
For the compound `[2H]C([2H])([2H])NC(=O)c1ccc(NCC#Cc2nc3c(NC4CC[C@@H](N5CC6(COC6)C5)C[C@@H]4F)cccn3c2CC(F)(F)F)c(OC([2H])([2H])[2H])c1` (stereo partly shown) [Compound 64], the GI50 is under 1 µM in test [1] and under 1 µM in test [3] (Homo sapiens, NUGC-3, 144 h). Besides, the “Compound GI50” value in test [3] was “B (B: GI50 of the reference compound < GI50 of the compound ≤ 3.0 * GI50 of the reference compound)”. For the same compound, the “Compound EC50” value in test [4] is “B (B: EC50 of the reference compound<EC50 of the compound≤3.0*EC50 of the reference compound)”.
